Test results reported in article PMC12030355 (Pharmaceuticals, 2025).

Assay: in vitro
Parameters: MTT cytotoxicity assay, absorbance 450 nm, normal cell line
Conditions: human, wi-38 cells; read-out: Cytotoxicity IC50 uM WI38
Procedure: 3.2.3. […] The remaining substances and tools were from either Sigma or Invitrogen. Before performing the MTT experiment, cells were seeded on a 96-well plate at a density of 1.2–1.8 10,000 cells/well in a volume of 100 μL complete growth media + 100 μL of the test substance each well. Multiwell plates are an excellent choice for using the MTT method, which is used to track in vitro cytotoxicity. Using cells in the log phase of growth and keeping the ultimate cell density around 10^6 cells/cm^2 will produce the best results. Every test should include a blank with a full medium but no cells. Cultures should be moved from the incubator into a sterile workspace, such as a laminar flow hood. Each MTT [M-5655] vial should be reconstituted with 3 mL of medium or balanced salt solution devoid of phenol red and serum. 10% of the volume of the culture medium should be added to the reconstituted MTT solution. Incubate cultures again for 2–4 h, depending on the type of cell and the maximal cell density. […] After the incubation period, remove the cultures from the incubator and apply MTT Solubilization Solution [M-8910] in a quantity equal to the volume of the original culture media to dissolve the formazan crystals that formed. In a gyratory shaker, gentle blending will improve solubility. Trituration, or pipetting up and down, may occasionally be necessary to completely dissolve the MTT formazan crystals, especially in thick cultures at a wavelength of 450 nm, and measure the absorbance spectrophotometrically. The background absorbance of multiwell plates at 690 nm were subtracted from 450 nm data. A suitable plate 7. Incubate cultures at 37°C for 24 hrs. 8-After treatment of cells with the serial concentrations of the compound to be tested incubation is carried out for 48 h at 37 °C ,then the plates are to be examined under the inverted microscope and proceed for the MTT assay MTT – Cytotoxicity assay protocol The MTT method of monitoring in vitro cytotoxicity is well suited for use with multiwell plates. For best results, cells in the log phase of growth should be employed and final cell number should not exceed 10^6 cells/cm2. Each test should include a blank containing complete medium without cells. 1. Remove cultures from incubator into laminar flow hood or other sterile work area.

`CCn1cc(-c2nc3ccccc3s2)c(=O)c2cc(F)c(N3CCN(C(=O)CCl)CC3)cc21` [compound 16, 3-(Benzo[d]thiazol-2-yl)-7-(4-(2-chloroacetyl)piperazin-1-yl)-1-ethyl-6-fluoroquinolin-4(1H)-one] and `CCn1cc(-c2nc3ccccc3s2)c(=O)c2cc(F)c(N3CCNCC3)cc21` [compound 15, 3-(Benzo[d]thiazol-2-yl)-1-ethyl-6-fluoro-7-(piperazin-1-yl)quinolin-4(1H)-one] are within 1.5-fold of each other in CC50 at 48 h: 51.2 µM for the first, 39.2 µM for the second.

`CCn1cc(C(=O)O)c(=O)c2cc(F)c(N3CCNCC3)cc21` [compound 1, norfloxacin] and `CCOC(=O)N1CCN(c2cc3c(cc2F)c(=O)c(C(=O)O)cn3CC)CC1` [compound 7, 7-(4-(Ethoxycarbonyl)piperazin-1-yl)-1-ethyl-6-fluoro-4-oxo-1,4-dihydroquinolin-3-carboxylic acid] are within 1.5-fold of each other in CC50 at 48 h: 54.6 µM for the first, 47.9 µM for the second.

Going from `COc1cccc2c1C(=O)c1c(O)c3c(c(O)c1C2=O)C[C@@](O)(C(=O)CO)C[C@@H]3O[C@H]1C[C@H](N)[C@H](O)[C@H](C)O1` [Doxorubicin] to `CCn1cc(C(=O)O)c(=O)c2cc(F)c(N3CCN(C(=O)CC#N)CC3)cc21` [compound 6], the CC50 at 48 h rises from 14.1 µM to 34.1 µM (2.4-fold).
